Results on one compound are retold here after US5449820A, “Method of preparing high purity 2,6-naphthalene dicarboxylic acid” (Mitsubishi Chemical Corporation, priority 1994, dated 1995).

A value given as a limit tells only on which side of the number the result lay.

The nature of this data set: solubility of 2,6-naphthalene dicarboxylic acid with respect to high temperature and high pressure water. The data set is classed as physicochemical. To be noted: for solubility in water containing 5 wt % of isopropanol: water containing 5 wt % of isopropanol (entrainer). The method, then:
Although the quantity of water for use in the dissolving process differs depending upon the dissolving temperature, the quantity of water must be larger than a quantity (the saturated solubility) in which coarse 2,6-naphthalene dicarboxylic acid can be completely dissolved. In an example case where water containing 5 wt % of isopropanol is used and the dissolving temperature is 300° C., five parts or more by weight of water with respect to one part by weight of coarse 2,6-naphthalene dicarboxylic acid is required. An example of the results of measurements of the solubility of 2,6-naphthalene dicarboxylic acid with respect to high temperature and high pressure water is shown in Table 1.

Consider `O=C(O)c1ccc2cc(C(=O)O)ccc2c1` [2,6-naphthalene dicarboxylic acid], for which the Solubility in water was determined as 0.36 wt % (225 °C, 27 atm); 1.13 wt % (250 °C, 40 atm); 3.28 wt % (275 °C, 60 atm); 8.34 wt % (300 °C, 86 atm); 18.6 wt % (325 °C, 121 atm); 34.2 wt % (375 °C, 230 atm). The compound also registered a Solubility in water (386 °C, 230 atm) of 36.7 wt %. In addition, the “solubility in water containing 5 wt % of isopropanol” value stood at 4.2 wt % (250 °C) and 18.0 wt % (300 °C). Moreover, the “solubility with respect to water (dissolved)” value (about 370 °C, critical temperature for water) is on record as at least 30 wt %.
